From patent US10980808B2, “Calmodulin inhibitors, Chk2 inhibitors and RSK inhibitors for the treatment of ribosomal disorders and ribosomapathies” (THE CHILDREN'S MEDICAL CENTER CORPORATION, priority 2016, dated 2021)
“Also recorded” adds a separate entry of the source.

Key:
[1] = tested on: rps29−/− zebrafish embryos; assay: hemoglobin (benzidine staining) rescue in rps29-/- zebrafish embryos; assay type: in vivo; details: for hemoglobin (Hb) in rps29−/− embryos: benzidine staining; for Hb increase at low concentrations: rps29−/− embryos, compared with positive control fluphenazine / with DB-4-089
[2] = tested on: rps29−/− zebrafish embryos; assay: chemical screen: rescue of morphological, hematopoietic and endothelial defects of rps29-/- embryo; assay type: in vivo
[3] = tested on: RPS19 shRNA CD34+ peripheral blood mononuclear cells; assay: primary human in vitro differentiation model of DBA: CD34+ PBMCs with RPS19 shRNA, CD71+ flow cytometry; assay type: cell-based; details: treated once for 5 days
Excerpt: FIG. 40 is a schematic of the testing of novel phenothiazine derivatives in a human in vitro model of DBA. Primary human peripheral blood mononuclear cells (PBMCs) are transduced with RPS19-GFP shRNA to make a ribiosomal protein deficiency. Cells are transferred to eyrthroid differentiation media and treated once for 5 days with Drug. Cells are harvested and analyzed for erythroid precursors by flow cytomety for CD71^+ cells.
We next tested three derivatives in our primary human in vitro differentiation model of DBA. To do this we expanded CD34+ peripheral blood mononuclear cells in culture for 2 days and induced ribosomal protein deficiency with a lentirvirus containing RPS19 shRNA (FIG. 40). After 3 days the cells are placed into erythroid differentiation media with or without the novel derivatives and cultured for 5 days. Erythroid differentiation is then assessed by flow cytometry analysis for the transferrin receptor, CD71+. […] In addition, the novel derivatives increased the absolute erythroid number compared to DMSO treated (FIG. 41). […] A table summarizing the activity of the compounds is found in FIG. 43.

6 dpf WT zebrafish = assay: zebrafish behavior tracking (proxy for BBB permeation); details: for zebrafish movement / swimming behavior vs DMSO: 6 dpf, drug in fish water, tracked 1-2 h
RSK2 = RSK2 (Homo sapiens, UniProt P51812); details: in vitro; cited from earlier work
RSK1 = RSK1 (Homo sapiens, UniProt Q15418); details: in vitro; cited from earlier work
RSK3 = RSK3 (Homo sapiens, UniProt Q15349); details: in vitro; cited from earlier work
RSK4 = RSK4 (Homo sapiens, UniProt Q9UK32); details: in vitro; cited from earlier work
p53 in Saos2 cells = assay: p53 activity in Saos2 cells transfected with p53 constructs (qPCR); assay type: cell-based
Method: FIG. 9A a schematic of wild type P53 and deleted regulatory region p53 (p53 reg). FIG. 9[…] of procedure. Saos2 cells (p53-null cells) transiently transfected with p53 constructs and were treated with vehicle or 20 μM TFP for 24 hours. TFP activity on p53 was assessed by the ability of TFP to reduce p21 mRNA levels measured by qPCR. FIG. 9C is a graph of p21 RNA expression. Since our compound decreases p53 activity, we wanted to determine the region of p53 is responsible for CaM inhibitor activity. […] Next, the c-terminal 30 amino acids from p53 (363-393) were removed. This construct is p53-reg. […] FIGS. 11A to 11C are schematics and graphs which indicate that p53 S392 phhosphomimetic prevents TFP from reducing p53 activity. To confirm the importance of the ability of CaM inhibitors to block the phosphorylation of p53, we created phosphomimetic p53 by replacing […], which mimics constitutive phosphorylation. We also generated a control phosphomimetic p53 where […]. This mutant should have no effect on the ability of TFP to reduce p53 activity. FIG. 11A is a schematic of experiment used to test these mutants, we transiently transfected, WT p53, […] and […] into Saos2 cells and treated them with vehicle or TFP. To assess p53 activity, we examined p21 and MDM2 mRNA levels. FIG. 11B is a graph of p21 Expression. FIG. 11C is a graph of MDM2 mRNA expression. […] Confirming that blocking the S392 phosphorylation is important for the activity of TFP.

[4] = tested on: 293T cells with RPS19 shRNA; assay: phosphorylation in 293T cells with RPS19 shRNA; assay type: cell-based, human; details: for phosphorylation of p70S6K: during ribosomal protein deficiency
Excerpt: FIGS. 17A to 17C are scehmatics and gels that indicate CaM and Chk2 inhibitors block phosphorylation of p70S6K selectively during RP deficiency. FIG. 17A schematic, we used 293T cells, and induced ribosomal protein deficiency using shRNA for RPS19 or Luc for control. […] ERK phosphorylation is increased by these inhibitors, which is also seen with RSK inhibitors. FIG. 17C a gel of the effect of Luc and […] shRNA on phosphorylated S392. […] RSK inhibitors increase ERK phosphorylation through a negative feedback loop. So TFP and BML similarly affect ERK in the same manner.

Rps19 deficient mice = assay: DBA dox-inducible RPS19 knockdown mouse model; assay type: in vivo; details: treated every other day for 2 weeks
[5] = tested on: RPS19 deficient CD34 cells; assay: phosphorylation in RPS19 deficient CD34 cells; assay type: cell-based, human
Excerpt: FIG. 18 is a schematic of the assay of RSK activation in human cells. The most relevant in vitro model in the blood field is primary human cells-such as Peripheral blood mononuclear cells (PBMCs). […] FIG. 19B schematic ov RP deficiency. TFP treatment reduces P-RPS6 and P-p53 […] and p53 total levels.

[6] = tested on: p53 phosphorylation in 293T cells; assay: mass spectrometry of p53 post-translational modifications in 293T cells; assay type: cell-based; details: 3 hours; for percentage of peptides containing phosphorylated serine 392 of p53: WT-p53-GFP
Method: FIGS. 10A to 10C show schematics, graphs and gels that indicate CaM and Chk2 inhibitors reduce S392 phosphorylation. FIG. 10A is a schematic of conserved regulatory region phosphorylation sites. FIG. 10B are graphs of an unbiased mass spectrometry analysis looking for post-translational modifications of p53 altered in the presence of the CaM inhibitor TFP or the Chk2 inhibitor, BML. 293T cells were transfected with WT-p53 tagged with GFP and treated with TFP or BML for 3 hours. P53 was immunoprecipitated using an antibody against GFP and was submitted for mass spec analysis. […] By two different mass spec methods, either conventional mass spec or by TMT tagging of the peptide we found in both cases the percentage of peptides containing phosphorylated serine 392 was reduced in TFP and BML treated samples (FIG. 10B). It was also noted that this serine is conserved in both zebrafish and mouse (FIG. 10A). FIG. 10C is a Western Blot that indicates phosphorylation decrease.

[7] = tested on: RPS19 deficient cord blood derived CD34+ cells; assay: human in vitro model of DBA: cord blood CD34+ cells with RPS19 shRNA, erythroid differentiation; assay type: cell-based
p70S6K = p70S6K (Homo sapiens, UniProt P23443); assay: in vitro kinase profiling (Thermo Fisher SelectScreen), p70S6K; assay type: biochemical
Excerpt: We asked if CaM and Chk2 inhibitors are blocking specific kinases. The known kinases that phosphorylate S392 are CK2 and p38. […] Thus, the question became what is TFP inhibiting upstream? Is it inhibiting a kinase that phosphorylates S392? We submitted CaM and Chk2 inhibitors for Kinase profiling using Thermo Fisher's SelectScreen.

MEK = details: upstream kinase; cited from earlier work
PKC = details: upstream kinase; cited from earlier work
Raf = details: upstream kinase; cited from earlier work
[8] = Saos2 cells with WT p53 or S15D p53

Sequence of RSK3 (Q15349 whole entry): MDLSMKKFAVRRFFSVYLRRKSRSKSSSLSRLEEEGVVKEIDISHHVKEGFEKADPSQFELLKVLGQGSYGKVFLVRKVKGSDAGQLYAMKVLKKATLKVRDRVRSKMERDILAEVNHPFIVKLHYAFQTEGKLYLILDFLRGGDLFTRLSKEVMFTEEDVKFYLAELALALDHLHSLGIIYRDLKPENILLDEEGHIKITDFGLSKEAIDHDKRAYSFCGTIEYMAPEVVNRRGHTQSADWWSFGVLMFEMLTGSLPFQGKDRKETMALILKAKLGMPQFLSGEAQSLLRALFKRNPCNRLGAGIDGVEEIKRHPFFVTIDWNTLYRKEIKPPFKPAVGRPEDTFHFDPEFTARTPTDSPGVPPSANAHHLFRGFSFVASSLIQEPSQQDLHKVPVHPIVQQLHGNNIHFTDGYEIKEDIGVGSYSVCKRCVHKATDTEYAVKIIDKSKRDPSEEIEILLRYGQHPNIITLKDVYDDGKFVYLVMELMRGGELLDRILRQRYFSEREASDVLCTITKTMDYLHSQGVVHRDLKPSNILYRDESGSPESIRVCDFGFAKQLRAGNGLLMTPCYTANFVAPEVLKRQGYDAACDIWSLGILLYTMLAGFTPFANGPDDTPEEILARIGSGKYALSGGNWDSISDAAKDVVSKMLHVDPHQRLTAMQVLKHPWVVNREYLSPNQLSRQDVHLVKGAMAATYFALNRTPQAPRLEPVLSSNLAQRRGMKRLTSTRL
Sequence of RSK4 (Q9UK32 whole entry): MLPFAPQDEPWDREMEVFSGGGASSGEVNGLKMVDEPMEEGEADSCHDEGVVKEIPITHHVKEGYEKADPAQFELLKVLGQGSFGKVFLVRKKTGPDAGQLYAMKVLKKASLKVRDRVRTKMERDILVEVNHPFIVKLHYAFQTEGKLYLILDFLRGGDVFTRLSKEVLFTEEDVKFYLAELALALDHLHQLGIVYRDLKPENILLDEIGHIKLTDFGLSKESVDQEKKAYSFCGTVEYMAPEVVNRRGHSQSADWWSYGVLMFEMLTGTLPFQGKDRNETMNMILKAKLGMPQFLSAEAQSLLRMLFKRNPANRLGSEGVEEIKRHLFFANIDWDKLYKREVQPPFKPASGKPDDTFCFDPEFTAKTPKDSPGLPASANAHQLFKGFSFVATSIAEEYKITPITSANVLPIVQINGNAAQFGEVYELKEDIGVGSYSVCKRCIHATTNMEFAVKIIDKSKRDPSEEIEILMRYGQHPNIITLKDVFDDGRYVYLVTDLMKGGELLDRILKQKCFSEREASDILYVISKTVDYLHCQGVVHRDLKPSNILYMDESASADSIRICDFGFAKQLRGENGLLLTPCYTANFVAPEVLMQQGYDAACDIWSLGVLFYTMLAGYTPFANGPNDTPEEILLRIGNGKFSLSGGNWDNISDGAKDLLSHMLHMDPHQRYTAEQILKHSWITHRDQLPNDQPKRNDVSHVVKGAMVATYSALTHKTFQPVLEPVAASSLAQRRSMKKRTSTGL
Sequence of p70S6K (P23443 whole entry): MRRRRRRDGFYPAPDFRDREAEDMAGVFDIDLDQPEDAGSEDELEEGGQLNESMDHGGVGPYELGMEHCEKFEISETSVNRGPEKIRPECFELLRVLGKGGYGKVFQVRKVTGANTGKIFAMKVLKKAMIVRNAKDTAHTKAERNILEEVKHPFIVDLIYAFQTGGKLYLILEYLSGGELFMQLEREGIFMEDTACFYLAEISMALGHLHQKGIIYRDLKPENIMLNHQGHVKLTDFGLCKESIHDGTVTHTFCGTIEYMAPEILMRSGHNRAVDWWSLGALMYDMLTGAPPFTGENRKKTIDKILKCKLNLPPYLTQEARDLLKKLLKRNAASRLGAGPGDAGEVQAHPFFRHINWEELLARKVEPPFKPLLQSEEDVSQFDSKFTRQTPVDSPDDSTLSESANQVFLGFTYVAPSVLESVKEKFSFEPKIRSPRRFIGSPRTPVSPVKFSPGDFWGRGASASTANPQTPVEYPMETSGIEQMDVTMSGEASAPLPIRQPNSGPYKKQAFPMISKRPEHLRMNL
Sequence of RSK2 (P51812 whole entry): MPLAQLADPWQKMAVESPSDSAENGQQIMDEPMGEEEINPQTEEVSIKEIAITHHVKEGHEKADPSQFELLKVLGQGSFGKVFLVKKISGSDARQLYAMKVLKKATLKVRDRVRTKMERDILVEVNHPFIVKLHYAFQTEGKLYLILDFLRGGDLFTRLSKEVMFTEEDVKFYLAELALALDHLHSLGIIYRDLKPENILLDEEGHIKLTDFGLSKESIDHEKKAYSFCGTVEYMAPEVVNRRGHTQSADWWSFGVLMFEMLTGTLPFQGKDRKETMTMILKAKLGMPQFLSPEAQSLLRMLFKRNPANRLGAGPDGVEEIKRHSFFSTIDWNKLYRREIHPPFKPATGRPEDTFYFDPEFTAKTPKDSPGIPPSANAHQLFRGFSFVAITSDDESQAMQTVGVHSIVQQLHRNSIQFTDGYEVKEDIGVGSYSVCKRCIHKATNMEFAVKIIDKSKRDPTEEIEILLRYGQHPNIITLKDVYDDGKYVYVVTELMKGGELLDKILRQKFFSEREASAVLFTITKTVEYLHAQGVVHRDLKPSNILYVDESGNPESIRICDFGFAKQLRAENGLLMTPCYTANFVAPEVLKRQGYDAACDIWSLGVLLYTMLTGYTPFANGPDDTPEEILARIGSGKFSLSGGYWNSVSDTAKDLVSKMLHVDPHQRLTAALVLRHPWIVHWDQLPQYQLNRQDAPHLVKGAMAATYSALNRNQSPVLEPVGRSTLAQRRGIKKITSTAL
Sequence of RSK1 (Q15418 whole entry): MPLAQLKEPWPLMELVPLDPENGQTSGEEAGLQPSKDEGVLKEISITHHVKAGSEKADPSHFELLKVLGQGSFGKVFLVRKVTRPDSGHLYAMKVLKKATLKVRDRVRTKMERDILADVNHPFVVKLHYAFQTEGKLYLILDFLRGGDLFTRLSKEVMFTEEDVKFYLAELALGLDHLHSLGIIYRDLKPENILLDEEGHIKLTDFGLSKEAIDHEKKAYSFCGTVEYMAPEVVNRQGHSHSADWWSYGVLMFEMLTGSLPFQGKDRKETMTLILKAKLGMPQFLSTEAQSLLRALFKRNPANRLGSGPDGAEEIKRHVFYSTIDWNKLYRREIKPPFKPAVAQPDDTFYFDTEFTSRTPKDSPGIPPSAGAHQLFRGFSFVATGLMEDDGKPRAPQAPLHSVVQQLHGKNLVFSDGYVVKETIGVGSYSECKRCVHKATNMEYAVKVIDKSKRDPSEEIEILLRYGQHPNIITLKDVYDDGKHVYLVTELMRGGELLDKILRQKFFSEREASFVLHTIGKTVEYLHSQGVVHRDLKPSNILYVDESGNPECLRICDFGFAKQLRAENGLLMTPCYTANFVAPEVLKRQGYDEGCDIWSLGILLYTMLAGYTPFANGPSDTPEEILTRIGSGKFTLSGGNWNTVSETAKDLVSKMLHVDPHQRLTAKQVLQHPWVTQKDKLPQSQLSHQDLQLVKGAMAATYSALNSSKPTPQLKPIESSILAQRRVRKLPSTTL

OCCN1CCN(CCCN2c3ccccc3Sc3ccc(Cl)cc32)CC1 [perphenizine]
hemoglobin (Hb) in rps29−/− embryos [1]: increase Hb

CC(C)N(CCCN1c2ccccc2Sc2ccc(Cl)cc21)CCCN1c2ccccc2Sc2ccc(Cl)cc21 [088-2]
rescuing morphological defects and hematopoietic and endothelial defects [2]: work particularly well
percentage of erythroid precursor cells (CD71+) compared to DMSO [3]: increased the percentage of erythroid precursor cells
Hb increase at low concentrations [1]: increase Hb at lower concentrations than the positive control phenothiazine

O=C(O)CCC(=O)NCCN1CCN(CCCN2c3ccccc3Sc3ccc(Cl)cc32)CC1 [PerSucc]
zebrafish movement / swimming behavior vs DMSO (6 dpf WT zebrafish): less active and rest more than DMSO treated fish
rescuing morphological defects and hematopoietic and endothelial defects [2]: work particularly well
hemoglobin (Hb) in rps29−/− embryos [1]: dramatic rescue of Hb expression; also recorded: increase Hb

NCCCCCCNS(=O)(=O)c1cccc2c(Cl)cccc12 [W-7]
hemoglobin (Hb) in rps29−/− embryos [1]: rescue Hb

NCCNS(=O)(=O)c1cccc2c(Cl)cccc12 [A-3]
hemoglobin (Hb) in rps29−/− embryos [1]: rescue Hb

CC(C)CCC1c2nc(Nc3cc(F)c(O)c(F)c3)ncc2N(C)C(=O)C1C (centres unmarked) [BI-D1870]
IC50 (RSK2): 24 nM
IC50 (RSK1): 31 nM
IC50 (RSK3): 18 nM
IC50 (RSK4): 15 nM

CC(C)(C)OC(=O)CCN1CCN(CCCN2c3ccccc3Sc3ccc(Cl)cc32)CC1 [compound 083]
Hb increase at low concentrations [1]: did not increase Hb at the same low concentrations

Clc1ccc2c(c1)N(CCCN1CCOCC1)c1ccccc1S2 [compound 086]
Hb increase at low concentrations [1]: did not increase Hb at the same low concentrations

CN1CCN(CCCN2c3ccccc3Sc3ccc(C(F)(F)F)cc32)CC1 [TFP, trifluoperazine]
ability of p53 to form a tetramer (p53 in Saos2 cells): did not inhibit
MDM2 mRNA levels (p53 in Saos2 cells; [8]): able to reduce
p21 mRNA levels (p53 in Saos2 cells; [8]): able to reduce
MDM2 mRNA levels (p53 in Saos2 cells; Saos2 cells with p53 S392D): unable to reduce
p21 mRNA levels (p53 in Saos2 cells; Saos2 cells with p53 S392D): unable to reduce
ERK phosphorylation [4]: increased
phosphorylation of p70S6K [4]: selectively inhibited
hemoglobin levels (Rps19 deficient mice): significantly increases
p21 mRNA levels (p53 activity) in bone marrow (Rps19 deficient mice): reduced; also recorded: decreases
red blood cell number (Rps19 deficient mice): significantly increases
P-RPS6 [5]: reduces
P-p53 S392 [5]: reduces
p53 total levels [5]: reduces
hemoglobin (Hb) in rps29−/− embryos [1]: rescue Hb
percentage of peptides containing phosphorylated Serine 6 of p53 [6]: did not change
percentage of peptides containing phosphorylated Serine 315 of p53 [6]: did not change
percentage of peptides containing phosphorylated serine 392 of p53 [6]: reduced
% erythroid precursor cells (CD71+) on day 12 [7]: increases
p21 mRNA levels [7]: dose dependently decreases

Clc1ccc2c(c1)N(CCCN1CCCCC1)c1ccccc1S2 [compound 084]
Hb increase at low concentrations [1]: did not increase Hb at the same low concentrations

NC(=O)c1ccc2nc(-c3ccc(Oc4ccc(Cl)cc4)cc3)[nH]c2c1 [BML]
ERK phosphorylation [4]: increased
phosphorylation of p70S6K [4]: selectively inhibited
percentage of peptides containing phosphorylated Serine 6 of p53 [6]: did not change
percentage of peptides containing phosphorylated Serine 315 of p53 [6]: did not change
percentage of peptides containing phosphorylated serine 392 of p53 [6]: reduced

CCc1cncnc1N1CCN(Cc2nc3cc(C(F)(F)F)ccc3[nH]2)CC1 [PF, 2-[[4-(5-Ethylpyrimidin-4-yl)piperazin-1-yl]methyl]-5-(trifluoromethyl)-1H-benzo[d]imidazole]
hemoglobin (Hb) in rps29−/− embryos [1]: increase Hb

NC1=N/C(=C2/CCNC(=O)c3cc4[nH]c5ccccc5c4cc32)C(=O)N1 [III]
percent inhibition of in vitro kinase activity, p70S6K (p70S6K): inhibition
hemoglobin (Hb) in rps29−/− embryos [1]: Resues Hb; also recorded: rescue Hb

3-[(3,4-Di-O-acetyl-6-deoxy-α-L-mannopyranosyl)oxy]-5,7-dihydro-2-(4-hydroxyphenyl)-4H-1benzopyran-4-one [SL]
inhibition of MEK (MEK): Does not inhibit
inhibition of PKC (PKC): Does not inhibit
inhibition of Raf (Raf): Does not inhibit
hemoglobin (Hb) in rps29−/− embryos [1]: increase Hb

Clc1ccc2c(c1)N(CCCN1CCN(CCNCCCOCCOCCOCCCNC(c3ccccc3)(c3ccccc3)c3ccccc3)CC1)c1ccccc1S2 [221E]
zebrafish movement / swimming behavior vs DMSO (6 dpf WT zebrafish): more erratic activity

CN1CCC(N(CCCN2c3ccccc3Sc3ccc(Cl)cc32)CCCN2c3ccccc3Sc3ccc(Cl)cc32)CC1 [compound 089]
zebrafish movement / swimming behavior vs DMSO (6 dpf WT zebrafish): altered behavior; also recorded: alters movement
toxicity in behavior assay (6 dpf WT zebrafish; highest dose): toxic at the highest dose
rescuing morphological defects and hematopoietic and endothelial defects [2]: work particularly well
percentage of erythroid precursor cells (CD71+) compared to DMSO [3]: increased the percentage of erythroid precursor cells
percentage of erythroid precursor cells (CD71+) compared to DMSO ([3]; listed as DB-4-089): increased eyrthroid differentiation
Hb increase at low concentrations [1]: increase Hb at lower concentrations than the positive control phenothiazine
Hb increase at low concentrations ([1]; listed as DB-4-089): increased Hb at low concentrations

CC(C)NCCCN1c2ccccc2Sc2ccc(Cl)cc21 [088-3]
rescuing morphological defects and hematopoietic and endothelial defects [2]: work particularly well
Hb increase at low concentrations [1]: increase Hb at lower concentrations than the positive control phenothiazine

OCCN1CCN(CCCN2c3ccccc3Sc3ccc(C(F)(F)F)cc32)CC1 [FLU, fluphenazine]
hemoglobin (Hb) in rps29−/− embryos [1]: rescues better than either RSK or p70S6K inhibitor alone
hemoglobin (Hb) in rps29−/− embryos ([1]; listed as fluphenazine): increase Hb
